From PubChem BioAssay (NCI)
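Five compound concentrations were applied to cells in 96-well plates for 48 hours; endpoints were derived by simple linear interpolation of the resulting dose-response curve. Abbreviation: GI50, concentration required for 50% inhibition of growth. Definition used: TGI = concentration required for complete inhibition of growth.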 Active and inactive are the calls of the source. Cut-off read from the data, not from the text of the source: active = GI50 below about 0.43 µM; inactive = the rest.

Tested on: MDA-MB-468 breast
Assay: NCI-60 cell line screen, 48 h

Compound	GI50	TGI	outcome
COc1c(C)cnc(Cn2cnc3c(Cl)nc(N)nc32)c1C	169 nM	1530 nM	
CC1SC(c2cccc(Oc3ccccc3)c2)N(CCc2cccs2)C1=O (stereo unspecified)	745 nM	2910 nM	
Oc1ccc(-c2nc(-c3ccc4oc5ccc(-c6[nH]c(-c7ccc(O)cc7)nc6-c6ccccc6)cc5c4c3)c(-c3ccccc3)[nH]2)cc1	6650 nM	88500 nM	
Cn1cc(C2=C(c3cn(CCCSC(=N)N)c4ccccc34)C(=O)NC2=O)c2ccccc21	569 nM	1900 nM	
CCOC(=O)c1ccccc1NC(c1ccccc1)c1ccc2cccnc2c1O (stereo unspecified)	2450 nM	6860 nM	
COc1cc(C2C3=C(COC3=O)N(CCO)c3cc4c(cc32)CCC4)cc(OC)c1OC (stereo unspecified)	61.7 nM	151 nM	
O=C(/C=C\c1ccc(Cl)c(Cl)c1)c1ccccc1	14300 nM	36900 nM	
Cc1nn(-c2ccccc2)c2ncc3c(c12)C(=O)N(Cc1ccccc1)C3=O	9210 nM	> 100000 nM	
O=C1/C(=C/c2ccc([N+](=O)[O-])s2)Oc2ccc(Cl)cc21	440 nM	1560 nM	
CCN(CC)CCC(CNc1c2ccc(Cl)cc2nc2ccc(OC)cc12)c1ccccc1 (stereo unspecified)	1570 nM	3010 nM	
Cc1cccc(NC(=O)c2sc3nc4c(cc3c2N)CCC4)c1C	196 nM	685 nM	
CCCCCCn1c(=N)n(CC(O)COc2cccc(C)c2)c2ccccc21 (stereo unspecified)	1710 nM	3540 nM	
CC(=O)OC1C(OC/C2=C/C3[C@@H](C(C)C)CC=C(C)[C@@H]3CC(OC(=O)/C=C/c3cn(C)cn3)[C@]3(C)C=C[C@@]2(O)O3)OCC(O)C1O (stereo partly specified)	10.8 nM	98.8 nM	
CCN(CC)CCCC(C)NC(=S)N/N=C(\C)c1ccccn1 (stereo unspecified)	1890 nM	5650 nM	
CN1CCN(Cc2ccc(NC(=O)c3cncc(C#Cc4c(N)ncc5ccc(F)cc45)c3)cc2C(F)(F)F)CC1	4190 nM	12300 nM	
Oc1c(Br)cc(Br)c2cccnc12	2430 nM	7530 nM	
COc1ccc(N2CCN(CC(=O)N3CCN(c4nnc(-c5ccc(Cl)cc5)c(-c5ccc(Cl)cc5)n4)CC3)CC2)cc1	11500 nM	45500 nM	
CNCc1ccc(C)c(NC(=O)c2ccc(Nc3nc(-c4ccccc4)c4ccccc4n3)cc2)c1	1610 nM	3130 nM	
Cn1c([N+](=O)[O-])cnc1/C=C1\Oc2ccc(Cl)cc2C1=O	1920 nM	4790 nM	
CCC(CC)N1C(=O)/C(=c2\sc3n(c2=O)C2C(NN=3)N(CC)C(=O)N2CC)c2ccccc21 (stereo unspecified)	489 nM	27000 nM	

Compound	GI50	TGI	outcome
C=C1C(=O)O[C@H]2[C@H]1CC/C(Cn1cc(CNC(=O)c3cc4ccccc4[nH]3)nn1)=C\CC[C@@]1(C)O[C@@H]21	1450 nM	3660 nM	
Cc1cc(N2CCOCC2)nc(N(CCNc2ccnc3cc(Cl)ccc23)Cc2cccs2)n1	2110 nM	5080 nM	
C=CC(=O)N1CC[C@@H](Oc2nc(Nc3ccc(N4CCC(N5CCN(C)CC5)CC4)cc3)c(C(N)=O)nc2CC)C1	> 100000 nM	> 100000 nM	
COc1ccc(C2CC(c3ccc(OC)c(OC)c3)=NN2C(=O)c2cc(OC)c(OC)c(OC)c2)cc1 (stereo unspecified)	575 nM	5210 nM	
COc1ccc(/C(C)=C(\c2ccc(Cl)cc2)c2ccc(OCCN3CCCCC3)cc2)cc1F	2490 nM	5620 nM	
Cc1nc2cc(NC(=O)CN3CCN(CCN4C(=O)c5cccc6cccc(c56)C4=O)CC3)ccc2s1	3630 nM	16600 nM	
CCS(=O)(=O)Nc1ccc(Oc2ccc(F)cc2F)c(-c2cn(C)c(=O)c3[nH]ccc23)c1	51.2 nM	5010 nM	
COc1ccc(/C=C2\CN(Cc3cn(CCCNc4ccnc5cc(Cl)ccc45)nn3)C/C(=C\c3ccc(OC)cc3)C2=O)cc1	11900 nM	26200 nM	
CN(C)CCCn1c2c(c3ccncc3c1=O)C(=O)c1ccccc1-2	461 nM	3020 nM	
CCCCc1ccc(C(N)=O)nc1	> 100000 nM	> 100000 nM	
C#Cc1cccc(NC(=O)Nc2cccc(NC(=O)CCl)c2)c1	19400 nM	78700 nM	
CCOC(=O)C(Cc1ccc(N(CCCl)CCCl)cc1)NC(=O)C(CC(C)C)NC(C)=O (stereo unspecified)	426 nM	2180 nM	
CC(CCC/C=C/CCCN(C)C(=N)N)CC(C)C1OC(=O)C(C)C(O)/C=C/C(C)C(O)C(C)C(O)C(C)C(O)CCCC(O)CC2(O)OC(CC(OC(=O)CC(=O)O)CC(O)CC(O)C(C)C(O)/C=C/C=C/C1C)CC(O)C2O (stereo unspecified)	1770 nM	3290 nM	inactive
Cc1cc(F)cc(NS(=O)(=O)c2ccc(-c3cnc(C4CC4)o3)cc2)c1	79 nM	2420 nM	
O=C(/C=C/CN1CCCCC1)Nc1cc2c(Nc3ccc(F)c(Cl)c3F)ncnc2cc1OCCOC(F)F	< 10 nM	11.8 nM	
COC(=O)[C@@H](C)C[C@H](Cc1ccccc1)NC(=O)c1cccc([C@@H](C[C@H](C(C)C)N(C)C(=O)[C@@H](NC(=O)[C@H]2CCCCN2C)C(C)C)OC(C)=O)n1	< 1.67 nM	143 nM	
Cn1cnc2nc(Cl)nc(Cl)c21	3680 nM	18700 nM	
N#CC1=C(N)Oc2c(ccc3ccccc23)C1c1ccccc1Cl (stereo unspecified)	466 nM	20700 nM	
COc1ccc(C2CC(c3cccc(Nc4ccnc5cc(Cl)ccc45)c3)=NN2c2ccc(Cl)cc2)cc1 (stereo unspecified)	4450 nM	40300 nM	
COc1cc2c(cc1Nc1nc(Nc3ccsc3C(N)=O)c3cc[nH]c3n1)N(C(=O)CN(C)C)CCC2	82.7 nM	947 nM	
